# Tests used:
# P2Y2 receptor = molecular target: T1, P2Y2 receptor (Homo sapiens, UniProt P41231); test: Fura-2 intracellular calcium, FlexStation, native AD-MSCs; type: cell-based; conditions: agonist; peak calcium response; […] °C, pH […] extracellular Ca2+; receptor assigned by antagonist
# T1 construct: gene P2RY2; native endogenous receptor in primary human adipose-derived mesenchymal stromal cells (female donors)
# Description: Fura-2 intracellular calcium, FlexStation, native AD-MSCs on P2Y2 receptor
# P2Y6 receptor = molecular target: T2, P2Y6 receptor (Homo sapiens, UniProt Q15077); conditions: antagonist against […] ADP; peak magnitude; cells do not respond to UDP up to […]; […] °C, pH […]
# T2 construct: gene P2RY6
# T2 sequence (Q15077 whole entry): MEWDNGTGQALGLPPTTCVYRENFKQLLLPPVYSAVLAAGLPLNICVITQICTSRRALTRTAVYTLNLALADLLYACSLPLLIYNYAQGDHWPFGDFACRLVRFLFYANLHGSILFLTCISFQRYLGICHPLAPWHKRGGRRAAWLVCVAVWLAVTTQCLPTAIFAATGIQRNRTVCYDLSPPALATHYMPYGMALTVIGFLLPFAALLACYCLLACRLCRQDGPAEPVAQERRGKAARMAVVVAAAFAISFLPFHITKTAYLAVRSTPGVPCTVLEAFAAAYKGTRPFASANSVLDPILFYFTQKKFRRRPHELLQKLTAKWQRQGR
# T1 sequence (P41231 whole entry): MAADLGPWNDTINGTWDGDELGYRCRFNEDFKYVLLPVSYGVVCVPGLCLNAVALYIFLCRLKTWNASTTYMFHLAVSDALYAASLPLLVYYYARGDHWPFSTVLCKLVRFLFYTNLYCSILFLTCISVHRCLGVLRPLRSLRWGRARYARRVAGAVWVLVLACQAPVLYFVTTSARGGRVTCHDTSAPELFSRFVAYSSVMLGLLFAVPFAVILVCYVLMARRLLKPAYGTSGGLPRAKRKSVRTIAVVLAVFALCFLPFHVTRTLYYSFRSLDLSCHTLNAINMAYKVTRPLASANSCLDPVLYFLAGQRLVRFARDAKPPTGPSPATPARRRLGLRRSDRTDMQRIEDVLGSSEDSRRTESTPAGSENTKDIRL
SMILES,EC50 (P2Y2 receptor),IC50 (P2Y6 receptor)
Nc1ncnc2c1ncn2[C@@H]1O[C@H](COP(=O)(O)OP(=O)(O)OP(=O)(O)O)[C@@H](O)[C@H]1O [ATP],2.24 ± 1.1 µM,
S=C=Nc1cccc(NC(=S)NCCCCNC(=S)Nc2cccc(N=C=S)c2)c1 [MRS2578],,0.437 ± 0.133 µM
O=c1ccn([C@@H]2O[C@H](COP(=O)(O)OP(=O)(O)OP(=O)(O)O)[C@@H](O)[C@H]2O)c(=O)[nH]1 [UTP],3.24 ± 2.8 µM,

# Reference: publication PMC6298923, “P2Y2 and P2Y6 receptor activation elicits intracellular calcium responses in human adipose-derived mesenchymal stromal cells” (Purinergic Signalling, 2018)
